This is an account of results in patent publication US10538498B2, “1,3,4-oxadiazole sulfonamide derivative compounds as histone deacetylase 6 inhibitor, and the pharmaceutical composition comprising the same” (Chong Kun Dang Pharmaceutical Corp., priority 2015, dated 2020).

Molecules are shown by their SMILES.

The assay addresses T1, human recombinant HDAC6 (Homo sapiens, UniProt Q9UBN7).
T1 construct: purchased Calbiochem 382180
T1 sequence (Q9UBN7 1-1215): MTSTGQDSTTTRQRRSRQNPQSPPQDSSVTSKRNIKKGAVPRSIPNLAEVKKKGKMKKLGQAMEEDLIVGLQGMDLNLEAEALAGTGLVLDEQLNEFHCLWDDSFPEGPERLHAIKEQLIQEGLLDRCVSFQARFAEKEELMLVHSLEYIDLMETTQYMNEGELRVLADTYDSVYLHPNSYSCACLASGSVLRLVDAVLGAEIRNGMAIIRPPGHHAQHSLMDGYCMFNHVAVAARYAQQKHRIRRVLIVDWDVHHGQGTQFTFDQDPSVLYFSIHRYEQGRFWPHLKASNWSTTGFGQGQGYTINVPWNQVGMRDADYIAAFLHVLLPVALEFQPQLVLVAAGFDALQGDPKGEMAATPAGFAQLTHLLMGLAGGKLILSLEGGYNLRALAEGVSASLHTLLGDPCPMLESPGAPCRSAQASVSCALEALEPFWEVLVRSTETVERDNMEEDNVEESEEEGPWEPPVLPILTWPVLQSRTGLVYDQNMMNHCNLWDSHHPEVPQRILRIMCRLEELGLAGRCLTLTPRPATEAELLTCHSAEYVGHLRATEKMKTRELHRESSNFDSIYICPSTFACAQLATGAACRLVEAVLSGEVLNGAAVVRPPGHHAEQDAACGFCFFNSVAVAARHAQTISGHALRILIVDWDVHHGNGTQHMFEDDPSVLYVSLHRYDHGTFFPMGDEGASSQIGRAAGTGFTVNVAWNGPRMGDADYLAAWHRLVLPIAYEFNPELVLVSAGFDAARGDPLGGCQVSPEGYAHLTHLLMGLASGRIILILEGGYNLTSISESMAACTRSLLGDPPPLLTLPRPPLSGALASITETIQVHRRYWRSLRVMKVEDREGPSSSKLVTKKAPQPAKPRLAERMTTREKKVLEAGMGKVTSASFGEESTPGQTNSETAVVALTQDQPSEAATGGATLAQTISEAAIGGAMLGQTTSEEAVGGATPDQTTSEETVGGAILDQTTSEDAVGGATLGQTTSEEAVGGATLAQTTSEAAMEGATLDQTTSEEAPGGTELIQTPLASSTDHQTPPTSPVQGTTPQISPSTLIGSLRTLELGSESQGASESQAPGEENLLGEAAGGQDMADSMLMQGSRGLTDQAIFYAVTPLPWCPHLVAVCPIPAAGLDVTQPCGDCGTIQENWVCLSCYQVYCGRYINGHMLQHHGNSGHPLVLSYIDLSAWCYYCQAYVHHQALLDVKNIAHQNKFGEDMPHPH
The experiment in a line: HDAC6 enzyme activity inhibition assay (HDAC Fluorimetric Drug Discovery Kit). As to conditions: for HDAC6 selectivity (fold): HDAC1 vs HDAC6; for IC50: same protocol as the HDAC1 enzyme activity test. The class given is biochemical. The method, then: In order to examine the HDAC6 selectivity of the compounds of formula I of the present invention by HDAC1 and HDAC6 enzymatic activity inhibition assays, an experiment was performed using a conventional substance as a control.
HDAC enzyme activity was measured using a HDAC Fluorimetric Drug Discovery Kit (BML-AK511, 516, Enzo Life Science). For the HDAC1 enzyme activity test, human recombinant HDAC1 (BML-SE456) was used as an enzyme source, and Fluor de Lys®-“SIRT1 (BNL-KI177) was used as a substrate. A 5-fold dilution of the compound was seeded into a 96-well plate, and then 0.3 μg of the enzyme and 10 μM of the substrate were added to each well of the plate and allowed to react at 30° C. for 60 minutes. Then, Fluor de Lys®-Developer II (BML-KI176) was added thereto and allowed to react for 30 minutes, after which the fluorescence value (Ex 360, Em 460) was measured using a multi-plate reader (Flexstation 3, Molecular Device). The HDAC6 enzyme was tested using human recombinant HDAC6 (382180) (Calbiochem) according to the same protocol as the HDAC1 enzyme activity test method. Based on the resulting values, each IC50 value was calculated using GraphPad Prism4.0 program.

By IC50 is commonly meant the concentration that inhibits the measured activity by half.

Turning to `CN(C)[C@H]1CCN(CCS(=O)(=O)N(Cc2ccc(-c3nnc(C(F)F)o3)cc2)c2ccccc2)C1` [Compound 11755, (S)—N-(4-(5-(difluoromethyl)-1,3,4-oxadiazol-2-yl)benzyl)-2-(3-(dimethylamino)pyrrolidin-1-yl)-N-phenylethane-1-sulfonamide], the “HDAC6 selectivity (fold)” value is reported as 1377 fold and the IC50 is 72.6 nM.
Consider `CS(=O)(=O)N(Cc1ccc(-c2nnc(C(F)(F)F)o2)c(F)c1)c1ccccc1` [Compound 11183, N-(3-fluoro-4-(5-(trifluoromethyl)-1,3,4-oxadiazol-2-yl)benzyl)-N-phenylmethanesulfonamide], for which the “HDAC6 selectivity (fold)” value is recorded as 426 fold and the half-inhibitory concentration (IC50) came to 235 nM.
On to `O=S(=O)(CCN1CCN(CCc2ccccc2)CC1)N(Cc1ccc(-c2nnc(C(F)F)o2)cc1)c1ccccc1` [Compound 11771, N-(4-(5-(difluoromethyl)-1,3,4-oxadiazol-2-yl)benzyl)-2-(4-phenethylpiperazin-1-yl)-N-phenylethane-1-sulfonamide], for which the “HDAC6 selectivity (fold)” value worked out at 311 fold and the IC50 was 321 nM.
As for `CS(=O)(=O)N(Cc1ccc(-c2nnc(C(F)F)o2)nn1)c1ccccc1` [Compound 11566, N-((6-(5-(difluoromethyl)-1,3,4-oxadiazol-2-yl)pyridazin-3-yl)methyl)-N-phenylmethanesulfonamide], the “HDAC6 selectivity (fold)” value was determined as 1124 fold and the IC50 was 89 nM.
As to `O=S(=O)(CCN1CCN(c2noc3ccccc23)CC1)N(Cc1ccc(-c2nnc(C(F)F)o2)cc1)c1ccccc1` [Compound 11844, 2-(4-(benzo[d]isoxazol-3-yl)piperazin-1-yl)-N-(4-(5-(difluoromethyl)-1,3,4-oxadiazol-2-yl)benzyl)-N-phenylethane-1-sulfonamide], the “HDAC6 selectivity (fold)” value turned out to be 172 fold and the IC50 was determined as 581 nM.
For the compound `O=S(=O)(C1CCN(C2COC2)CC1)N(Cc1ccc(-c2nnc(C(F)F)o2)cn1)c1cccc(Cl)c1` [Compound 11683, N-(3-chlorophenyl)-N-((5-(5-(difluoromethyl)-1,3,4-oxadiazol-2-yl)pyridin-2-yl)methyl)-1-(oxetan-3-yl)piperidine-4-sulfonamide], the “HDAC6 selectivity (fold)” value is recorded as 14285 fold and the IC50 was found to be 7 nM.
The like results for `Cc1nn(C)c2ccc(N(Cc3ccc(-c4nnc(C(F)F)o4)cc3)S(C)(=O)=O)cc12` [Compound 11746, N-(4-(5-(difluoromethyl)-1,3,4-oxadiazol-2-yl)benzyl)-N-(1,3-dimethyl-1H-indazol-5-yl)methanesulfonamide] were, in that order, 784 fold and 127 nM.
Regarding `CS(=O)(=O)N(Cc1ccc(-c2nnc(C(F)F)o2)cc1)CC12CC3CC(CC(C3)C1)C2` [Compound 11668, N-((adamantan-1-yl)methyl)-N-(4-(5-(difluoromethyl)-1,3,4-oxadiazol-2-yl)benzyl)methanesulfonamide], the “HDAC6 selectivity (fold)” value amounted to 724 fold and the IC50 is 138 nM.
In the same order, the values of `CCCCN(Cc1ccc(-c2nnc(C(F)(F)F)o2)cc1)S(C)(=O)=O` [Compound 11222, N-butyl-N-(4-(5-(trifluoromethyl)-1,3,4-oxadiazol-2-yl)benzyl)methanesulfonamide] are 243 fold and 412 nM.
`CS(=O)(=O)N(Cc1ccc(-c2nnc(C(F)F)o2)cc1)c1nccs1` [Compound 11739, N-(4-(5-(difluoromethyl)-1,3,4-oxadiazol-2-yl)benzyl)-N-(thiazol-2-yl)methanesulfonamide]: the “HDAC6 selectivity (fold)” value was found to be 148 fold and the IC50 was 675 nM.
The like results for `O=S(=O)(CCN1CCN(c2ccc(F)cc2)CC1)N(Cc1ccc(-c2nnc(C(F)F)o2)cc1)c1ccccc1` [Compound 11769, N-(4-(5-(difluoromethyl)-1,3,4-oxadiazol-2-yl)benzyl)-2-(4-(4-fluorophenyl)piperazin-1-yl)-N-phenylethane-1-sulfonamide] were, in that order, 359 fold and 278 nM.
Regarding `CS(=O)(=O)N(Cc1ccc(-c2nnc(C(F)F)o2)cc1)c1ncco1` [Compound 11741, N-(4-(5-(difluoromethyl)-1,3,4-oxadiazol-2-yl)benzyl)-N-(oxazol-2-yl)methanesulfonamide], the “HDAC6 selectivity (fold)” value was 57 fold and the 50% inhibitory concentration (IC50) is 1740 nM.
The like results for `Cc1cccc(N(Cc2ccc(-c3nnc(C(F)F)o3)cc2)S(=O)(=O)C2CCN([C@H]3CC[C@@H](C(F)(F)F)CC3)CC2)c1` [Compound 11698, N-(4-(5-(difluoromethyl)-1,3,4-oxadiazol-2-yl)benzyl)-N-(m-tolyl)-1-((1s,4s)-4-(trifluoromethyl)cyclohexyl)piperidine-4-sulfonamide] were, in that order, 151 fold and 661 nM.
In the same order, the values of `CCCCS(=O)(=O)N(Cc1ccc(-c2nnc(C(F)F)o2)cc1F)c1ccccc1` [Compound 11290, N-(4-(5-(difluoromethyl)-1,3,4-oxadiazol-2-yl)-2-fluorobenzyl)-N-phenylbutane-1-sulfonamide] are 2041 fold and 49 nM.
The like results for `CC(C)n1ncc2ccc(N(Cc3ccc(-c4nnc(C(F)F)o4)cc3)S(C)(=O)=O)cc21` [Compound 11742, N-(4-(5-(difluoromethyl)-1,3,4-oxadiazol-2-yl)benzyl)-N-(1-isopropyl-1H-indazol-6-yl)methanesulfonamide] were, in that order, 418 fold and 239 nM.
As for `CS(=O)(=O)N1CCN(CCS(=O)(=O)N(Cc2ccc(-c3nnc(C(F)F)o3)cc2F)c2ccc(F)c(Cl)c2)CC1` [Compound 11554, N-(3-chloro-4-fluorophenyl)-N-(4-(5-(difluoromethyl)-1,3,4-oxadiazol-2-yl)-2-fluorobenzyl)-2-(4-(methylsulfonyl)piperazin-1-yl)ethane-1-sulfonamide], the “HDAC6 selectivity (fold)” value is 4348 fold and the half-maximal inhibitory concentration (IC50) worked out at 23 nM.
In the same order, the values of `O=S(=O)(C1CCN(C2COC2)CC1)N(Cc1ccc(-c2nnc(C(F)F)o2)cc1F)c1ccccc1` [Compound 11625, N-(4-(5-(difluoromethyl)-1,3,4-oxadiazol-2-yl)-2-fluorobenzyl)-1-(oxetan-3-yl)-N-phenylpiperidine-4-sulfonamide] are 719 fold and 139 nM.
Consider `CN1CCN(CCCS(=O)(=O)N(Cc2ccc(-c3nnc(C(F)F)o3)cc2)c2ccccc2)CC1` [Compound 11658, N-(4-(5-(difluoromethyl)-1,3,4-oxadiazol-2-yl)benzyl)-3-(4-methylpiperazin-1-yl)-N-phenylpropane-1-sulfonamide], for which the “HDAC6 selectivity (fold)” value was determined as 2500 fold and the IC50 was found to be 40 nM.
In the same order, the values of `Cc1ccccc1N(Cc1ccc(-c2nnc(C(F)(F)F)o2)cc1F)S(C)(=O)=O` [Compound 11248, N-(2-fluoro-4-(5-(trifluoromethyl)-1,3,4-oxadiazol-2-yl)benzyl)-N-(o-tolyl)methanesulfonamide] are 893 fold and 112 nM.
On to `CS(=O)(=O)N(Cc1ccc(-c2nnc(C(F)F)o2)cc1)c1ccc2c(c1)CN(C1COC1)C2` [Compound 11731, N-(4-(5-(difluoromethyl)-1,3,4-oxadiazol-2-yl)benzyl)-N-(2-(oxetan-3-yl)isoindolin-5-yl)methanesulfonamide], for which the “HDAC6 selectivity (fold)” value is reported as 57 fold and the IC50 came to 1750 nM.
